Data as given in publication PMC7366380, “Discovery of a Potent and Selective Covalent Inhibitor and Activity-Based Probe for the Deubiquitylating Enzyme UCHL1, with Antifibrotic Activity” (Journal of the American Chemical Society, 2020).

Experiments:
USP22 = target: T1, USP22 (Homo sapiens, UniProt Q9UPT9); assay: Biochemical DUB selectivity profiling assay: USP22; settings: Ub-Rho110 400 nM, buffer B; read-out: Biochemical IC50 range, USP22
T1 sequence (Q9UPT9 1-525): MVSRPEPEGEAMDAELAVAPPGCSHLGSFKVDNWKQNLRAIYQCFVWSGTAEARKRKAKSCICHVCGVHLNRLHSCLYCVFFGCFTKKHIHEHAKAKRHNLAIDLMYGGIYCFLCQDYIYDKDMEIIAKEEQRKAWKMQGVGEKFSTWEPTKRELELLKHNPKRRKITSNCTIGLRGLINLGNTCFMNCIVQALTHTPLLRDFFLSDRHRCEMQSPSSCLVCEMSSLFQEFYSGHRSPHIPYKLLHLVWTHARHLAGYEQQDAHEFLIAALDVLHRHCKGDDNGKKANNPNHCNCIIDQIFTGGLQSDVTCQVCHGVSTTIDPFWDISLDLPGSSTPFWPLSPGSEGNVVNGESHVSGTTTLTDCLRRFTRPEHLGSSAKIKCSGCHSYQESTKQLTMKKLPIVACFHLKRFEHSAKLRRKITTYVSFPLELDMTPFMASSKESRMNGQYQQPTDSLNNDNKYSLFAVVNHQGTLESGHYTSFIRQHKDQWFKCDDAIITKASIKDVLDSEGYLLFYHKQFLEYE
T1 sequence (Q14CW9 1-347 partner): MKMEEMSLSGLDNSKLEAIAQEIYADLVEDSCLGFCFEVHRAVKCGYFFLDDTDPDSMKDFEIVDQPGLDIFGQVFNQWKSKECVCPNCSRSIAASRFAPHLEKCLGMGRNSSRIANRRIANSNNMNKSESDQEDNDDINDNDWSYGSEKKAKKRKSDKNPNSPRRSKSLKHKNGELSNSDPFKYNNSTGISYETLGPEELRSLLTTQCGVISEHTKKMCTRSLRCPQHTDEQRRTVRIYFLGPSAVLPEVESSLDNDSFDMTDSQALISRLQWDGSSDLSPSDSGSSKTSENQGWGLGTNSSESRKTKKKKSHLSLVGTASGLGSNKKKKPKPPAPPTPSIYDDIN
T1 sequence (Q9NPA8 1-101 partner): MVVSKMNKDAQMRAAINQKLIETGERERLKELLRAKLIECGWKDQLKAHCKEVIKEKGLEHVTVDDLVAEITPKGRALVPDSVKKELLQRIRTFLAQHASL
Procedure: (§1) DUB Assay Substrate Substrate
(§2) Buffer Concentration (nM) […]
(§3) Sepharose® 4B resin (GE Healthcare).
(§4) 10 kDa molecular weight cut-off (MWCO)).
(§5) Fractions containing protein
(§6) Protein concentration was […]
(§7) reaction volume of 21 μL. […]
(§8) compound (final concentration 5 nM).
(§9) IC50 values were determined
(§10) Biochemical DUB selectivity profiling assays […]
(§11) in 40 µL total reaction volume.

USP35 = target: T2, USP35 (Homo sapiens, UniProt Q9P2H5); assay: Biochemical DUB selectivity profiling assay: USP35; settings: Ub-Lys-TAMRA 50 nM, buffer B; read-out: Biochemical IC50 range, USP35
T2 sequence (Q9P2H5 1-1018): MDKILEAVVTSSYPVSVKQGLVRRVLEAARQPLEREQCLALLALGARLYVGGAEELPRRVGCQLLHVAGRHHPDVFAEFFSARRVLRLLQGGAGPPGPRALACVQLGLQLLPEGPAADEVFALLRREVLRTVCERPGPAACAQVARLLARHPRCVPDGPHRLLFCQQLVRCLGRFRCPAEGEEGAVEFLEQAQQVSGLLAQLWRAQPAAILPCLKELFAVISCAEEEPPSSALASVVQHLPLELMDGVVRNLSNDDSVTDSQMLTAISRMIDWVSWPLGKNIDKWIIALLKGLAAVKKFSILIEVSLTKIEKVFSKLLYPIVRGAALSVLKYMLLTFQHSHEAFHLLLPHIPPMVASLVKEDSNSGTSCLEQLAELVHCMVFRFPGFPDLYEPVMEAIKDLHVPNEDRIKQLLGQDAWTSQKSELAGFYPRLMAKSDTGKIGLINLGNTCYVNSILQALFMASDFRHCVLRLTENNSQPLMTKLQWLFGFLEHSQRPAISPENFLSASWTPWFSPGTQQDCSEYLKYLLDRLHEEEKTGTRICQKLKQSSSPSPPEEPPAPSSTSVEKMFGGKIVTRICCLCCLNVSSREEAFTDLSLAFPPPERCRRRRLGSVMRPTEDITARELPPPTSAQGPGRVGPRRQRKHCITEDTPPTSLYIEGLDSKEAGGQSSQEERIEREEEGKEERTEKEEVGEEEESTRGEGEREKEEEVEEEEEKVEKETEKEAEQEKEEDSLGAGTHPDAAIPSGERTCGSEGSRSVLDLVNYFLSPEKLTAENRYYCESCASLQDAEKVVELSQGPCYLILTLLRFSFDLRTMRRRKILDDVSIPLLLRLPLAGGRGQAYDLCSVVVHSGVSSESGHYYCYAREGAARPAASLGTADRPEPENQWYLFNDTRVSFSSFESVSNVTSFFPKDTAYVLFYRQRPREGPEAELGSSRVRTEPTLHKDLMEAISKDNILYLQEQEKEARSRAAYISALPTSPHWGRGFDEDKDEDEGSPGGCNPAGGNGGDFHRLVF
Procedure: as §1, §2, §3, §4, §5, §6, §7, §8, §9, §10, §11

BAP1 = target: T3, BAP1 (Homo sapiens, UniProt Q92560); assay: biochemical
T3 sequence (Q92560 1-729): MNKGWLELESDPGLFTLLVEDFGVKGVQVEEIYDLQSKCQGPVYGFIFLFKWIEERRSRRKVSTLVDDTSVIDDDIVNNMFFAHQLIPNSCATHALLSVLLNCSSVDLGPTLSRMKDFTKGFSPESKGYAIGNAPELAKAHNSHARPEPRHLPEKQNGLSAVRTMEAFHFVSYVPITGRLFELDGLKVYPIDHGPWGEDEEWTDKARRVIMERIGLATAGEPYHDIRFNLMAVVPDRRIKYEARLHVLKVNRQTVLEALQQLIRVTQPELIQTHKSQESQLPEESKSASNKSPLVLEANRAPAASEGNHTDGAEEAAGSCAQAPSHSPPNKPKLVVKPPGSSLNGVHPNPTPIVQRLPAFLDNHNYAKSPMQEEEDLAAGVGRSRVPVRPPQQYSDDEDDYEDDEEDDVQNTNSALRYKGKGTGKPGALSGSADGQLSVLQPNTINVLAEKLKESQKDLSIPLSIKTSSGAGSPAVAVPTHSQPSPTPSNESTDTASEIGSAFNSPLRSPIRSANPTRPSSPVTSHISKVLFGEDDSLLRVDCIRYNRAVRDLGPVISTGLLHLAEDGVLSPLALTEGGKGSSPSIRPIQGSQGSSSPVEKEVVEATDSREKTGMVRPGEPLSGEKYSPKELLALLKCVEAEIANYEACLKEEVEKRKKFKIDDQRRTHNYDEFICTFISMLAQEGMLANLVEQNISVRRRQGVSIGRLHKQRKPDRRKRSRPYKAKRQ

Structure (SMILES) | IC50 (USP22) | IC50 (USP35) | IC50 (BAP1)
N#CN1CCC[C@H]1C(=O)N1CCc2c(-c3c[nH]c4ncccc34)cccc21 [Compound 1] | > 10 µM | > 10 µM | 1 to 10 µM
C#Cc1cnc2[nH]cc(-c3cccc4c3CCN4C(=O)[C@@H]3CCCN3C#N)c2c1 [Compound 2] | > 10 µM | > 10 µM | –
N#CN1CCC[C@@H]1C(=O)N1CCc2c(-c3c[nH]c4ncccc34)cccc21 [Compound 3] | > 10 µM | > 10 µM | > 10 µM
CC(=O)O/N=C1\C(=O)N(Cc2cc(Cl)ccc2Cl)c2ccc(Cl)cc21 [LDN-57444, reference compound] | > 10 µM | > 10 µM | > 10 µM
